Results as given in ChEMBL document CHEMBL3739426, “Synthesis and biological evaluation of novel 2-isoxazoline fused cyclopentane derivatives as potential antimicrobial and anticancer agents” (Medchemcomm, 2015).
Converted amounts (≈) assume the structure as drawn. The source made the active and inactive calls. No cut-off for these calls is given here.

Legend:
MCF7 [1] = test: Induction of apoptosis in human MCF7 cells assessed as formation of extremely condensed chromatin at 5 ug/ml after 48 hrs using acridine orange and ethidium bromide staining by light microscopic analysis; format: functional, cell-based
MCF7 [2] = test: Induction of apoptosis in human MCF7 cells assessed as formation of cell membrane blebbing at 10 ug/ml after 48 hrs using acridine orange and ethidium bromide staining by light microscopic analysis; format: functional, cell-based
MCF7 [3] = test: Induction of apoptosis in human MCF7 cells assessed as formation of nuclear fragmentation at 10 ug/ml after 48 hrs using acridine orange and ethidium bromide staining by light microscopic analysis; format: functional, cell-based
MCF7 [4] = test: Induction of apoptosis in human MCF7 cells assessed as formation of chromatin condensation at 10 ug/ml after 48 hrs using acridine orange and ethidium bromide staining by light microscopic analysis; format: functional, cell-based
MCF7 [5] = test: Induction of apoptosis in human MCF7 cells assessed dead cells at 5 ug/ml after 48 hrs using annexin V/propidium iodide staining by muse cell analyzer analysis (reference value: 1.04%); format: functional
MCF7 [6] = test: Induction of apoptosis in human MCF7 cells assessed live cells at 5 ug/ml after 48 hrs using annexin V/propidium iodide staining by muse cell analyzer analysis (reference value: 81.07%); format: functional
MCF7 [7] = test: Induction of apoptosis in human MCF7 cells assessed late apoptotic cells at 5 ug/ml after 48 hrs using annexin V/propidium iodide staining by muse cell analyzer analysis (reference value: 11.89%); format: functional
MCF7 [8] = test: Induction of apoptosis in human MCF7 cells assessed early apoptotic cells at 5 ug/ml after 48 hrs using annexin V/propidium iodide staining by muse cell analyzer analysis (reference value: 6%); format: functional
MCF7 [9] = test: Induction of apoptosis in human MCF7 cells assessed dead cells at 10 ug/ml after 48 hrs using annexin V/propidium iodide staining by muse cell analyzer analysis (reference value: 1.04%); format: functional
MCF7 [10] = test: Induction of apoptosis in human MCF7 cells assessed live cells at 10 ug/ml after 48 hrs using annexin V/propidium iodide staining by muse cell analyzer analysis (reference value: 81.07%); format: functional
MCF7 [11] = test: Induction of apoptosis in human MCF7 cells assessed late apoptotic cells at 10 ug/ml after 48 hrs using annexin V/propidium iodide staining by muse cell analyzer analysis (reference value: 11.89%); format: functional
MCF7 [12] = test: Induction of apoptosis in human MCF7 cells assessed early apoptotic cells at 10 ug/ml after 48 hrs using annexin V/propidium iodide staining by muse cell analyzer analysis (reference value: 6%); format: functional
MCF7 [13] = test: Cell cycle arrest in human MCF7 cells assessed as accumulation at G0/G1 phase at 5 ug/ml after 48 hrs using propidium iodide staining by flow cytometry analysis (reference value: 47.3%); format: functional
MCF7 [14] = test: Cell cycle arrest in human MCF7 cells assessed as accumulation at S phase at 5 ug/ml after 48 hrs using propidium iodide staining by flow cytometry analysis (reference value: 12.7%); format: functional
MCF7 [15] = test: Cell cycle arrest in human MCF7 cells assessed as accumulation at G2/M phase at 5 ug/ml after 48 hrs using propidium iodide staining by flow cytometry analysis (reference value: 25.8%); format: functional
MCF7 [16] = test: Cell cycle arrest in human MCF7 cells assessed as accumulation at G0/G1 phase at 10 ug/ml after 48 hrs using propidium iodide staining by flow cytometry analysis (reference value: 47.3%); format: functional
MCF7 [17] = test: Cell cycle arrest in human MCF7 cells assessed as accumulation at S phase at 10 ug/ml after 48 hrs using propidium iodide staining by flow cytometry analysis (reference value: 12.7%); format: functional
MCF7 [18] = test: Cell cycle arrest in human MCF7 cells assessed as accumulation at G2/M phase at 10 ug/ml after 48 hrs using propidium iodide staining by flow cytometry analysis (reference value: 25.8%); format: functional
MCF7 [19] = test: Induction of apoptosis in human MCF7 cells assessed as decrease of mitochondrial membrane potential after 12 hrs using JC-1 dye by fluorescence microscopic analysis; format: functional, cell-based
Bacillus subtilis = test: Antimicrobial activity against Bacillus subtilis by cup plate diffusion method; format: functional
Priestia megaterium = test: Antimicrobial activity against Bacillus megaterium by cup plate diffusion method; format: functional
Escherichia coli = test: Antimicrobial activity against Escherichia coli by cup plate diffusion method; format: functional
Pseudomonas sp. = test: Antimicrobial activity against Pseudomonas sp. by cup plate diffusion method; format: functional
Candida albicans = test: Antimicrobial activity against Candida albicans by cup plate diffusion method; format: functional
HT-29 = test: Cytotoxicity against human HT-29 cells after 48 hrs by MTT assay; format: functional, cell-based; settings: HT-29, 48 h
HeLa = test: Cytotoxicity against human HeLa cells after 48 hrs by MTT assay; format: functional, cell-based
MCF7 [20] = test: Cytotoxicity against human MCF7 cells after 48 hrs by MTT assay; format: functional, cell-based; settings: MCF7, 48 h
A549 = test: Cytotoxicity against human A549 cells after 48 hrs by MTT assay; format: functional, cell-based; settings: A549, 48 h
[21] = Cytotoxicity against human PC3 cells after 48 hrs by MTT assay; format: functional, cell-based; settings: PC-3, 48 h
MCF7 [22] = test: Induction of apoptosis in human MCF7 cells assessed as formation of intact nuclei at 5 ug/ml after 48 hrs using acridine orange and ethidium bromide staining by light microscopic analysis; format: functional, cell-based

SMILES	MIC (Bacillus subtilis)	MIC (Priestia megaterium)	MIC (Escherichia coli)	MIC (Pseudomonas sp.)	MIC (Candida albicans)	IC50 (HT-29)	IC50 (HeLa)	IC50 (MCF7 [20])	IC50 (A549)	IC50 [21]	other results
OC[C@@H]1C[C@H](CO)[C@@H]2C(c3ccc4ccccc4c3)=NO[C@H]12	26 µg/mL (≈ 87.4 µM)	26 µg/mL (≈ 87.4 µM)	> 100 µg/mL	> 100 µg/mL	> 100 µg/mL	14.3 µg/mL (≈ 48.1 µM)	24.5 µg/mL (≈ 82.4 µM)	11.5 µg/mL (≈ 38.7 µM)	> 50 µg/mL	48.4 µg/mL (≈ 163 µM)	Activity (MCF7 [1]): Active; Activity (MCF7 [2]): Active; Activity (MCF7 [3]): Active; Activity (MCF7 [4]): Active; Activity (MCF7 [5]): 4.06%; Activity (MCF7 [6]): 55.08%; Activity (MCF7 [7]): 15.91%; Activity (MCF7 [8]): 24.94%; Activity (MCF7 [9]): 0.61%; Activity (MCF7 [10]): 32.21%; Activity (MCF7 [11]): 18.85%; Activity (MCF7 [12]): 48.32%; Activity (MCF7 [13]): 44.7%; Activity (MCF7 [14]): 14.9%; Activity (MCF7 [15]): 24.8%; Activity (MCF7 [16]): 35.7%; Activity (MCF7 [17]): 27.5%; Activity (MCF7 [18]): 22.6%; Activity (MCF7 [19]): Dose-dependent effect; Activity (MCF7 [22]): Active
COC(=O)[C@H]1C[C@@H](C(=O)OC)[C@H]2ON=C(c3ccc(C#N)cc3)[C@H]21	> 100 µg/mL	> 100 µg/mL	> 100 µg/mL	> 100 µg/mL	> 100 µg/mL	> 50 µg/mL	> 50 µg/mL	> 50 µg/mL	> 50 µg/mL	> 50 µg/mL	
O=C(O)[C@H]1C[C@@H](C(=O)O)[C@H]2ON=C(c3ccc(Br)cc3)[C@H]21	10.5 µg/mL (≈ 29.6 µM)	10.5 µg/mL (≈ 29.6 µM)	2.2 µg/mL (≈ 6.21 µM)	22 µg/mL (≈ 62.1 µM)	8.7 µg/mL (≈ 24.6 µM)	> 50 µg/mL	45.6 µg/mL (≈ 129 µM)	> 50 µg/mL	> 50 µg/mL	> 50 µg/mL	
COc1ccc(C2=NO[C@H]3[C@@H]2[C@@H](C(=O)O)C[C@H]3C(=O)O)cc1OC	> 100 µg/mL	> 100 µg/mL	88.4 µg/mL (≈ 264 µM)	44.2 µg/mL (≈ 132 µM)	81.6 µg/mL (≈ 243 µM)	40.6 µg/mL (≈ 121 µM)	> 50 µg/mL	> 50 µg/mL	> 50 µg/mL	> 50 µg/mL	
O=C(O)[C@H]1C[C@@H](C(=O)O)[C@H]2ON=C(c3ccc4ccccc4c3)[C@H]21	> 100 µg/mL	> 100 µg/mL	> 100 µg/mL	> 100 µg/mL	> 100 µg/mL	29.7 µg/mL (≈ 91.3 µM)	> 50 µg/mL	31.8 µg/mL (≈ 97.7 µM)	> 50 µg/mL	> 50 µg/mL	
COC(=O)[C@H]1C[C@@H](C(=O)OC)[C@H]2ON=C(c3ccc(OC)c(OC)c3)[C@H]21	> 100 µg/mL	> 100 µg/mL	> 100 µg/mL	> 100 µg/mL	> 100 µg/mL	> 50 µg/mL	> 50 µg/mL	> 50 µg/mL	> 50 µg/mL	> 50 µg/mL	
COc1ccc(C2=NO[C@@H]3[C@H](CO)C[C@H](CO)[C@H]23)cc1	> 100 µg/mL	> 100 µg/mL	> 100 µg/mL	> 100 µg/mL	> 100 µg/mL	> 50 µg/mL	> 50 µg/mL	23.7 µg/mL (≈ 85.5 µM)	36.6 µg/mL (≈ 132 µM)	> 50 µg/mL	
OC[C@@H]1C[C@H](CO)[C@@H]2C(c3ccc(Br)cc3)=NO[C@H]12	48.6 µg/mL (≈ 149 µM)	48.6 µg/mL (≈ 149 µM)	> 100 µg/mL	> 100 µg/mL	> 100 µg/mL	37.3 µg/mL (≈ 114 µM)	> 50 µg/mL	> 50 µg/mL	> 50 µg/mL	> 50 µg/mL	
